{"source": "patent US20080045519A1", "about": "“Method to Fight Against Insects Including the Use of Hydrocarbon Compounds” (priority 2004, published 2008)", "test_system": "worker termites of Reticulitermes santonensis type", "test": "Insecticidal activity of fipronil plus hydrocarbon compound mixture, termite mortality after 3 days (Example 4)", "assay_type": "in vivo", "details": "matrix sprayed with hydrocarbon compound mixture (Mixture B), 100 termites", "procedure": "The experiment is conducted in a LAB test box (6 cm×9 cm) containing on the bottom 2 mm of wet Fontainebleau sand and is repeated five times. In the box, a matrix is placed, consisting of a foam cube in which holes are made with a diameter of 5 mm, over which a small piece of poplar wood is placed (1 cm×2 cm×2 cm). The foam is impregnated with cold fipronil. The matrix is sprayed with a hydrocarbon compound mixture including 11.4% of 5-methylpentacosane; 36.3% of 11-methylpentacosane; 19.6% of (Z)-9-pentacosene; 27.7% of n-pentacosane, and 5% of n-hexacosane. Only 4 faces are sprayed. The top and the bottom of the matrix are not treated.\nIn the box, an untreated piece of poplar wood is also placed in order to recreate a natural situation as exactly as possible.\n100 worker termites of Reticulitermes santonensis type are placed in the box and their mortality after 3 days is evaluated. Various concentrations of cold fipronil are tested: 0.5 ppm, 1 ppm, 2 ppm, 5 ppm, and 7 ppm.", "note": "“And” between values parts separate entries of the source, which are not always exact repeats. Equal entries are not always repeated.", "data": [{"smiles": "N#Cc1nn(-c2c(Cl)cc(C(F)(F)F)cc2Cl)c(N)c1[S+]([O-])C(F)(F)F", "note": "(stereo not drawn) [Fipronil, fipronil]", "values": [{"measurement": "Number of termites dead after 3 days", "setting": "fipronil at 0.5 ppm, average of 5 trials", "result": 0}, {"measurement": "Number of termites dead after 3 days", "setting": "fipronil at 0.5 ppm, single trials", "result": 0}, {"measurement": "Number of termites dead after 3 days", "setting": "fipronil at 1 ppm, average of 5 trials", "result": 0}, {"measurement": "Number of termites dead after 3 days", "setting": "fipronil at 1 ppm, single trials", "result": 0}, {"measurement": "Number of termites dead after 3 days", "setting": "fipronil at 2 ppm, average of 5 trials", "result": 20}, {"measurement": "Number of termites dead after 3 days", "setting": "fipronil at 5 ppm, average of 5 trials", "result": 50.4}, {"measurement": "Number of termites dead after 3 days", "setting": "fipronil at 5 ppm, single trials", "result": "42 and 45 and 59 and 56 and 50"}, {"measurement": "Number of termites dead after 3 days", "setting": "fipronil at 7 ppm, average of 5 trials", "result": 50.8}, {"measurement": "Number of termites dead after 3 days", "setting": "fipronil at 7 ppm, single trials", "result": "60 and 42 and 55 and 34 and 63"}]}]}
